The source of these data is ChEMBL document CHEMBL4118290, “Synthesis of 1,5-Anhydro-d-fructose derivatives and evaluation of their inflammasome inhibitors” (Bioorg Med Chem, 2018).

Active and inactive are the calls of the source. No cut-off for these calls is given here.

As a reminder, the IC50 is the concentration needed to halve the response being measured.

Test [1] addresses T1, NACHT, LRR and PYD domains-containing protein 3 (Homo sapiens, UniProt Q96P20). Kind of test: Inhibition of nigericin-induced NLRP3 inflammasome activation in PMA-differentiated human THP1 cells assessed as reduction in LPS-stimulated IL-1beta secretion incubated for 1 hr prior to stimulation with nigericin for 1 hr by quanti-blue based SEAP reporter gene assay. A general note: In a reporter assay the amount or activity of a reporter protein is the signal.

For test [2], the target named is NACHT, LRR and PYD domains-containing protein 3 (Mus musculus, UniProt Q8R4B8). In words: (§1) Inhibition of nigericin-induced NLRP3 inflammasome activation in C57BL/6 mouse bone marrow derived macrophages assessed as reduction in LPS-stimulated IL-1beta secretion incubated for 1 hr followed by nigericin addition measured after 1 hr by ELISA. For orientation: An ELISA detects its analyte on a solid surface through an enzyme-linked reagent.

Test [3] addresses NACHT, LRR and PYD domains-containing protein 3 (Mus musculus) (UniProt Q8R4B8). Kind of test: Inhibition of nigericin-induced NLRP3-dependent pyroptosis in C57BL/6 mouse bone marrow derived macrophages assessed as restoration of LPS-stimulated decrease in intracellular ATP level incubated for 1 hr followed by nigericin addition measured after 1 hr by cell titer-glo reagent based luminescence assay. A general note: ATP-based viability assays read luminescence as a measure of living cells.

The target of test [4] is T1, NACHT, LRR and PYD domains-containing protein 3. Kind of test: Inhibition of nigericin-induced NLRP3 inflammasome activation in PMA-differentiated human THP1 cells assessed as reduction in LPS-stimulated processing of pro-IL-1beta to mature IL-1beta in supernatant at 3.4 mM incubated for 1 hr followed by nigericin addition measured after 1 hr by Western blot analysis.

The target in test [5] is NACHT, LRR and PYD domains-containing protein 3 (Mus musculus) (UniProt Q8R4B8). Kind of test: Inhibition of nigericin-induced NLRP3 inflammasome activation in C57BL/6 mouse bone marrow derived macrophages assessed as reduction in LPS-stimulated processing of pro-IL-1beta to mature IL-1beta in cell lysate at 6.8 mM incubated for 1 hr followed by nigericin addition measured after 1 hr by Western blot analysis.

For test [6] the target is unchanged. In words: Inhibition of nigericin-induced NLRP3 inflammasome activation in C57BL/6 mouse bone marrow derived macrophages assessed as reduction in LPS-stimulated processing of pro-IL-1beta to mature IL-1beta in supernatant at 6.8 mM incubated for 1 hr followed by nigericin addition measured after 1 hr by Western blot analysis.
For test [7] the target is unchanged. Described as §1.
The target in test [8] is T1, NACHT, LRR and PYD domains-containing protein 3. In words: Inhibition of nigericin-induced NLRP3 inflammasome activation in PMA-differentiated human THP1 cells assessed as reduction in LPS-stimulated processing of pro-IL-1beta to mature IL-1beta in cell lysate at 3.4 mM incubated for 1 hr followed by nigericin addition measured after 1 hr by Western blot analysis.
The target is the same in test [9]. In words: Inhibition of nigericin-induced NLRP3 inflammasome activation in PMA-differentiated human THP1 cells assessed as reduction in LPS-stimulated IL-1beta secretion at 60 mM incubated for 1 hr prior to stimulation with nigericin for 1 hr by ELISA.
Test [10] has as its target NACHT, LRR and PYD domains-containing protein 3 (Mus musculus) (UniProt Q8R4B8). Kind of test: Inhibition of nigericin-induced NLRP3 inflammasome activation in C57BL/6 mouse bone marrow derived macrophages assessed as reduction in LPS-stimulated processing of pro-IL-1beta to mature IL-1beta in cell lysate at 100 uM incubated for 1 hr followed by nigericin addition measured after 1 hr by Western blot analysis.

Test [11] has the same target. Kind of test: Inhibition of nigericin-induced NLRP3 inflammasome activation in C57BL/6 mouse bone marrow derived macrophages assessed as reduction in LPS-stimulated processing of pro-IL-1beta to mature IL-1beta in supernatant at 100 uM incubated for 1 hr followed by nigericin addition measured after 1 hr by Western blot analysis.

Sequence of NACHT, LRR and PYD domains-containing protein 3 (Mus musculus) (Q8R4B8 whole entry, the tested form may be a part): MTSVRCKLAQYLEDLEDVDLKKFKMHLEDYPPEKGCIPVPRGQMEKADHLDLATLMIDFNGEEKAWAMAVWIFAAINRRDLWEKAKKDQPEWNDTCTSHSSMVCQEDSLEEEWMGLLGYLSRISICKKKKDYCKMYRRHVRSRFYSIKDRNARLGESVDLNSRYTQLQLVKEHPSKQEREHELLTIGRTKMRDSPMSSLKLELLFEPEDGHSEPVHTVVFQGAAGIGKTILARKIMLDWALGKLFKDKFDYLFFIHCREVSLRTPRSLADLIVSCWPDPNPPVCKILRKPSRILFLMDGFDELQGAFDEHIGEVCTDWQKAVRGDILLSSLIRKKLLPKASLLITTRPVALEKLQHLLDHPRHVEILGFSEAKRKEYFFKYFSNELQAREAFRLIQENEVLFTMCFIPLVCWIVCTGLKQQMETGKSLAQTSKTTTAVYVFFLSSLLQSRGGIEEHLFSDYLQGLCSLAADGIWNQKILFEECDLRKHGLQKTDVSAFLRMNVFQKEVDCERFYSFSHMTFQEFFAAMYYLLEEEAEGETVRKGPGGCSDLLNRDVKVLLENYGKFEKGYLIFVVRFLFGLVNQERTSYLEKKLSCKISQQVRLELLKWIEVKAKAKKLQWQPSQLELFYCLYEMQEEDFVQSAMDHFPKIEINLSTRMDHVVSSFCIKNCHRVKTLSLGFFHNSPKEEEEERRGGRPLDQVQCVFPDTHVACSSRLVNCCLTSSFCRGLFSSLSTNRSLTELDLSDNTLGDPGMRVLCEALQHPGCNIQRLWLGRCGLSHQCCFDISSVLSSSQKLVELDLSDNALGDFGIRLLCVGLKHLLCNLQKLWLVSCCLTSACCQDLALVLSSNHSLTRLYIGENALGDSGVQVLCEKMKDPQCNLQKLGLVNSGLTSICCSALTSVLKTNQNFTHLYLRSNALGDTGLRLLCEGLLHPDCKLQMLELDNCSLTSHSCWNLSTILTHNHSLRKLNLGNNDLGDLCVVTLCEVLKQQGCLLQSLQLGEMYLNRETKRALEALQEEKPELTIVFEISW
Sequence of NACHT, LRR and PYD domains-containing protein 3 (Mus musculus, UniProt Q8R4B8) (Q8R4B8 whole entry, the tested form may be a part): as above
T1 sequence (Q96P20 whole entry, the tested form may be a part): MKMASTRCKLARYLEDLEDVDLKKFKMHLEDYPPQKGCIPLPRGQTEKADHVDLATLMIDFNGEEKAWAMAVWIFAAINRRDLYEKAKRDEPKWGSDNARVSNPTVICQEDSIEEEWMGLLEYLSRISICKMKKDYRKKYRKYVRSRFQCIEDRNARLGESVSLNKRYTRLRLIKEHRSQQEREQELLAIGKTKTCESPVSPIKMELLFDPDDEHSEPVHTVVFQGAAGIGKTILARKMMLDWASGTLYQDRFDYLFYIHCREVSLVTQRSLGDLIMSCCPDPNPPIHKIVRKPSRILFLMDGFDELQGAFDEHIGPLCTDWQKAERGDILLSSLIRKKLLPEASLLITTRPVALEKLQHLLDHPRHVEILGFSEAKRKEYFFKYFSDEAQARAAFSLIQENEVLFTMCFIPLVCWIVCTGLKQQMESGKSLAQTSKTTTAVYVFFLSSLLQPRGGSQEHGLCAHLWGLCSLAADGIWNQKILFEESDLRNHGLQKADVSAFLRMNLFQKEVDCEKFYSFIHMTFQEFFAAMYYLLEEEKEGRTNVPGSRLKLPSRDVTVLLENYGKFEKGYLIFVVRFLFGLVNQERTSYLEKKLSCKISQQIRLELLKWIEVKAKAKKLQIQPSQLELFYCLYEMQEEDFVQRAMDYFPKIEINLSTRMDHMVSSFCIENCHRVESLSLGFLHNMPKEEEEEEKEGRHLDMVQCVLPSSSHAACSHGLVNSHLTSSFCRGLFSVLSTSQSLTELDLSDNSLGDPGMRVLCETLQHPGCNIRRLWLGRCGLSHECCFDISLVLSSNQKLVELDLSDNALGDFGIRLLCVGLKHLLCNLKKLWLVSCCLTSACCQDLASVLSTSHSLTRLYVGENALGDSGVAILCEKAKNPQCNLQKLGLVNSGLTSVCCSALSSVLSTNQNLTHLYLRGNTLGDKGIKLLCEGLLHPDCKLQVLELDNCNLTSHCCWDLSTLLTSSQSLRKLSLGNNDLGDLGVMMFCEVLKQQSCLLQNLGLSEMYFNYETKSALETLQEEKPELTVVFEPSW

In the case of `CCCCCCCC(=O)OC[C@@H]1C=CC(=O)CO1`, the IC50 in test [1] is 5.1 µM; in test [2] it was 8.4 µM. In [3], the inhibition entry is “Dose-dependent effect”.
Consider `O=C1C(F)=C[C@@H]2CO[C@H]1O2` (single isomer, unassigned), for which the IC50 in [1] was determined as 4.8 µM; in [2], 0.8 µM. Further, in [3], the inhibition entry is “Dose-dependent effect”.
For `CC(=O)OC[C@@H]1C=C(F)C(=O)CO1` the same measures were 3.7 µM, 3.2 µM and “Dose-dependent effect”.
In the case of `O=C1CO[C@H](CO)[C@@H](O)C1`, the inhibition result in [4], in [5], in test [6] and in [8] was “Active” throughout. Further, the IC50 in [1] was 2300 µM; in test [2], 1600 µM. In addition, the inhibition result in test [7] and in test [3] was “Dose-dependent effect” throughout.
As to `CC(=O)OC1=C(F)C(OC(C)=O)[C@@H]2CO[C@H]1O2` (stereo partly specified), the results for the IC50 in [1] and in test [2] were 3.7 µM and 1 µM, respectively. For the same compound, the inhibition result in test [3] is “Dose-dependent effect”.
As for `O=C1C=C[C@H]2CO[C@@H]1O2`, the IC50 in test [1] was found to be 6.6 µM; in test [2], 1.2 µM.
For the compound `O=C1CO[C@H](CO)[C@@H](O)[C@@H]1O`, in test [9], the inhibition result is “inactive”. In addition, the IC50 in [2] was 29000 µM. The inhibition result in test [7] is “Dose-dependent effect”.
For `O=C1C=C[C@@H](CO)OC1`, the inhibition result in test [10] and in test [11] was “Active” in each case. In addition, in test [2], the IC50 came to 16 µM. In addition, the inhibition entry in test [7] and in [3] was “Dose-dependent effect” throughout.
`CCCC(=O)OC[C@@H]1C=CC(=O)CO1`: the IC50 in [1] and in test [2] was 3.6 µM throughout. In addition, in test [3], the inhibition entry was “Dose-dependent effect”.
On to `CC(=O)OC[C@@H]1C=CC(=O)CO1`, for which the results for the IC50 in test [1] and in test [2] were 4.3 µM and 5.7 µM, respectively. Further, the inhibition result in test [3] was “Dose-dependent effect”.
